We go through 31 compounds from patent US10111874B2, “Combination therapies for treatment of cancer” (Araxes Pharma LLC, priority 2014, dated 2018).

The assay deals with T1, KRAS G12C 1-169, his-tagged protein, GDP-loaded (Homo sapiens, UniProt P01116, G12C).
T1 construct: KRAS G12C 1-169, his-tagged protein, GDP-loaded
T1 sequence (P01116 1-169 isoform P01116-2 G12C): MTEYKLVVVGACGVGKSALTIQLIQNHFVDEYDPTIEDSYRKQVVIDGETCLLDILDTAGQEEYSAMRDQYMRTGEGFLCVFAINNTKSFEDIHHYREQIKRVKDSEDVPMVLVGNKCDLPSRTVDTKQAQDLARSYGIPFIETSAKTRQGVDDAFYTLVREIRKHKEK
Nature of the assay: Biochemical assay: covalent binding to KRAS G12C analyzed by mass spectrometry. Also: test concentration or dose not given here. Particulars: compounds 48-246, measured at 2 h.
Regarding `C=CC(=O)N1CCN(c2ncnc3cc(-c4cc(C5CC5)ccc4F)c(Cl)cc23)CC1` [Compound I-147, 1-(4-(6-chloro-7-(5-cyclopropyl-2-fluorophenyl)quinazolin-4-yl)piperazin-1-yl)prop-2-en-1-one], the Binding % entry was “++ (++indicates binding activity greater than 25% and up to 50%)”.

Regarding `C=CC(=O)N1CCN(c2ncnc3cc(-c4cccc5c4CCCC5)c(Cl)cc23)CC1` [Compound I-148, 1-(4-(6-chloro-7-(5,6,7,8-tetrahydronaphthalen-1-yl)quinazolin-4-yl)piperazin-1-yl)prop-2-en-1-one], the Binding % entry was “+++ (+++indicates binding activity greater than 50% and up to 75%)”.

Turning to `C=CC(=O)N1CCN(c2ncnc3cc(-c4cccc5onc(N)c45)c(Cl)cc23)CC1` [Compound I-149, 1-(4-(7-(3-aminobenzo[d]isoxazol-4-yl)-6-chloroquinazolin-4-yl)piperazin-1-yl)prop-2-en-1-one], the Binding % entry is on record as “+ (+indicates binding activity from 5% to 25%)”.

Turning to `C=CC(=O)N1CCN(c2ncnc3cc(-c4ccccc4F)c(C(F)(F)F)cc23)CC1` [Compound I-150, 1-(4-(7-(2-fluorophenyl)-6-(trifluoromethyl)quinazolin-4-yl)piperazin-1-yl)prop-2-en-1-one], the Binding % entry is listed as “++++ (++++indicates binding activity greater than 75%)”.

Consider `C=CC(=O)N1CCN(c2ncnc3cc(-c4cccc5cn[nH]c45)c(Cl)cc23)CC1` [Compound I-152, 1-(4-(6-chloro-7-(1H-indazol-7-yl)quinazolin-4-yl)piperazin-1-yl)prop-2-en-1-one], for which the Binding % result is “+++ (+++indicates binding activity greater than 50% and up to 75%)”.

Turning to `C#Cc1ccccc1-c1cc2ncnc(N3CCN(C(=O)C=C)CC3)c2cc1Cl` [Compound I-154, 1-(4-(6-chloro-7-(2-ethynylphenyl)quinazolin-4-yl)piperazin-1-yl)prop-2-en-1-one], the Binding % result is “++ (++indicates binding activity greater than 25% and up to 50%)”.

Take `C=CC(=O)N1CCN(c2ncnc3cc(-c4cc(C(N)=O)ccc4F)c(Cl)cc23)CC1` [Compound I-155, 3-(4-(4-acryloylpiperazin-1-yl)-6-chloroquinazolin-7-yl)-4-fluorobenzamide]: the Binding % result was “++ (++indicates binding activity greater than 25% and up to 50%)”.

`C=CC(=O)N1CCN(c2ncnc3cc(-c4ccccc4CC4CC4)c(Cl)cc23)CC1` [Compound I-156, 1-(4-(6-chloro-7-(2-(cyclopropylmethyl)phenyl)quinazolin-4-yl)piperazin-1-yl)prop-2-en-1-one]: the Binding % result is “++ (++indicates binding activity greater than 25% and up to 50%)”.

As to `C=CC(=O)N1CCN(c2ncnc3cc(-c4ccccc4C(F)(F)F)ccc23)CC1` [Compound I-157, 1-(4-(7-(2-(trifluoromethyl)phenyl)quinazolin-4-yl)piperazin-1-yl)prop-2-en-1-one], the Binding % entry is “+ (+indicates binding activity from 5% to 25%)”.

Consider `C=CC(=O)N1CCN(c2ncnc3cc(-c4cccc5c4CC(=O)N5)c(Cl)cc23)CC1` [Compound I-160, 4-(4-(4-acryloylpiperazin-1-yl)-6-chloroquinazolin-7-yl)indolin-2-one], for which the Binding % result is “+ (+indicates binding activity from 5% to 25%)”.

On to `C=CC(=O)N1CCN(c2ncnc3cc(-c4ccccc4CC(N)=O)c(Cl)cc23)CC1` [Compound I-161, 2-(2-(4-(4-acryloylpiperazin-1-yl)-6-chloroquinazolin-7-yl)phenyl)acetamide], for which the Binding % entry is “++ (++indicates binding activity greater than 25% and up to 50%)”.

On to `C=CC(=O)N1CCN(c2ncnc3cc(-c4ccc5cn[nH]c5c4)c(Cl)cc23)CC1` [Compound I-162, 1-(4-(6-chloro-7-(1H-indazol-6-yl)quinazolin-4-yl)piperazin-1-yl)prop-2-en-1-one], for which the Binding % result is “+ (+indicates binding activity from 5% to 25%)”.

For the compound `C=CC(=O)N1CCN(c2ncnc3cc(-c4ccccc4F)c(O)cc23)CC1` [Compound I-163, 1-(4-(7-(2-fluorophenyl)-6-hydroxyquinazolin-4-yl)piperazin-1-yl)prop-2-en-1-one], the Binding % result is listed as “+ (+indicates binding activity from 5% to 25%)”.

Regarding `C=CC(=O)N1CCN(c2ncnc3cc(-c4ccc5oc(N)nc5c4)c(Cl)cc23)CC1` [Compound I-164, 1-(4-(7-(2-aminobenzo[d]oxazol-5-yl)-6-chloroquinazolin-4-yl)piperazin-1-yl)prop-2-en-1-one], the Binding % entry is recorded as “+ (+indicates binding activity from 5% to 25%)”.

Regarding `C=CC(=O)N1CCN(c2ncnc3cc(-c4ccccc4C(F)(F)F)sc23)CC1` [Compound I-166, 1-(4-(6-(2-(trifluoromethyl)phenyl)thieno[3,2-d]pyrimidin-4-yl)piperazin-1-yl)prop-2-en-1-one], the Binding % result is recorded as “+ (+indicates binding activity from 5% to 25%)”.

Take `C=CC(=O)N1CCN(c2ncnc3cc(-c4cccc5[nH]ncc45)c(Cl)cc23)CC1` [Compound I-167, 1-(4-(6-chloro-7-(1H-indazol-4-yl)quinazolin-4-yl)piperazin-1-yl)prop-2-en-1-one]: the Binding % result is “+ (+indicates binding activity from 5% to 25%)”.

`C=CC(=O)N1CCN(c2ncnc3cc(-c4ccccc4CC#N)c(Cl)cc23)CC1` [Compound I-168, 2-(2-(4-(4-acryloylpiperazin-1-yl)-6-chloroquinazolin-7-yl)phenyl)acetonitrile]: the Binding % result was “++ (++indicates binding activity greater than 25% and up to 50%)”.

For the compound `C=CC(=O)N1CCN(c2ncnc3cc(-c4ccc(O)cc4C(F)(F)F)c(Cl)cc23)CC1` [Compound I-169, 1-(4-(6-chloro-7-(4-hydroxy-2-(trifluoromethyl)phenyl)quinazolin-4-yl)piperazin-1-yl)prop-2-en-1-one], the Binding % entry was “+++ (+++indicates binding activity greater than 50% and up to 75%)”.

With `C=CC(=O)N1CCN(c2ncnc3cc(-c4ccc[nH]c4=O)c(Cl)cc23)CC1` [Compound I-170, 3-(4-(4-acryloylpiperazin-1-yl)-6-chloroquinazolin-7-yl)pyridin-2(1H)-one], the Binding % entry was “+ (+indicates binding activity from 5% to 25%)”.

Take `C=CC(=O)N1CCN(c2c(C#N)cnc3cc(-c4cccc5ccccc45)c(Cl)cc23)CC1` [Compound I-171, 4-(4-acryloylpiperazin-1-yl)-6-chloro-7-(naphthalen-1-yl)quinolin-3-carbonitrile]: the Binding % result is “+++ (+++indicates binding activity greater than 50% and up to 75%)”.

As for `C=CC(=O)N1CCN(c2c(C#N)cnc3cc(-c4ccc(F)cc4F)c(Cl)cc23)CC1` [Compound I-172, 4-(4-acryloylpiperazin-1-yl)-6-chloro-7-(2,4-difluorophenyl)quinolin-3-carbonitrile], the Binding % result was “+++ (+++indicates binding activity greater than 50% and up to 75%)”.

Turning to `C=CC(=O)N1CCN(c2c(C#N)cnc3cc(-c4ccccc4C(F)(F)F)c(Cl)cc23)CC1` [Compound I-173, 4-(4-acryloylpiperazin-1-yl)-6-chloro-7-(2-(trifluoromethyl)phenyl) quinoline-3-carbonitrile], the Binding % entry is recorded as “++++ (++++indicates binding activity greater than 75%)”.

On to `C=CC(=O)N1CCN(c2ncnc3cc(-c4cc(NC(C)=O)ccc4F)c(Cl)cc23)CC1` [Compound I-174, N-(3-(4-(4-acryloylpiperazin-1-yl)-6-chloroquinazolin-7-yl)-4-fluorophenyl)acetamide], for which the Binding % entry is “++ (++indicates binding activity greater than 25% and up to 50%)”.

For the compound `C=CC(=O)N1CCN(c2ncnc3cc(-c4ccccc4C4(C#N)CC4)c(Cl)cc23)CC1` [Compound I-175, 1-(2-(4-(4-acryloylpiperazin-1-yl)-6-chloroquinazolin-7-yl)phenyl)cyclopropanecarbonitrile], the Binding % entry is “+++ (+++indicates binding activity greater than 50% and up to 75%)”.

For `C=CC(=O)N1CCN(c2ncnc3cc(-c4ccccc4C4(C(N)=O)CC4)c(Cl)cc23)CC1` [Compound I-176, 1-(2-(4-(4-acryloylpiperazin-1-yl)-6-chloroquinazolin-7-yl)phenyl)cyclopropanecarboxamide], the Binding % result is “+++ (+++indicates binding activity greater than 50% and up to 75%)”.

Consider `C=CC(=O)N1CCN(c2ncnc3cc(-n4cc(Cl)ccc4=O)c(Cl)cc23)CC1` [Compound I-177, 1-(4-(4-acryloylpiperazin-1-yl)-6-chloroquinazolin-7-yl)-5-chloropyridin-2(1H)-one], for which the Binding % result is on record as “+ (+indicates binding activity from 5% to 25%)”.

`C=CC(=O)Nc1ncc(C)c(-c2cc3ncnc(N4CCN(C(=O)C=C)CC4)c3cc2Cl)n1` [Compound I-178, N-(4-(4-(4-acryloylpiperazin-1-yl)-6-chloroquinazolin-7-yl)-5-methylpyrimidin-2-yl)acrylamide]: the Binding % entry is listed as “+ (+indicates binding activity from 5% to 25%)”.

With `C=CC(=O)N1CCN(c2ncnc3cc(-c4nc(N)ncc4C)c(Cl)cc23)CC1` [Compound I-179, 1-(4-(7-(2-amino-5-methylpyrimidin-4-yl)-6-chloroquinazolin-4-yl)piperazin-1-yl)prop-2-en-1-one], the Binding % entry was “+ (+indicates binding activity from 5% to 25%)”.

In the case of `C=CC(=O)N1CCN(c2ncnc3cc(-c4cccc5cncnc45)c(Cl)cc23)CC1` [Compound I-180, 1-(4-(6-chloro-7,8′-biquinazolin-4-yl)piperazin-1-yl)prop-2-en-1-one], the Binding % result is given as “+ (+indicates binding activity from 5% to 25%)”.

On to `C=CC(=O)N1CCN(c2ncnc3cc(-n4ccc(Cl)cc4=O)c(Cl)cc23)CC1` [Compound I-181, 1-(4-(4-acryloylpiperazin-1-yl)-6-chloroquinazolin-7-yl)-4-chloropyridin-2(1H)-one], for which the Binding % entry is on record as “+ (+indicates binding activity from 5% to 25%)”.

As for `C=CC(=O)N1CCN(c2c(C#N)cnc3cc(-c4ccccc4O)c(Cl)cc23)CC1` [Compound I-182, 4-(4-acryloylpiperazin-1-yl)-6-chloro-7-(2-hydroxyphenyl)quinoline-3-carbonitrile], the Binding % result is “+++ (+++indicates binding activity greater than 50% and up to 75%)”.
